For assay [1], the system named is S. aureus MN8. The class given is cell-based, Staphylococcus aureus.
Assay [2] deals with Streptococcus agalactiae MNSI. The class given is cell-based.
In a further assay the test system is B. anthracis Sterne. In kind it is cell-based, Bacillus anthracis. The conditions noted are these: for antimicrobial activity / growth inhibition: 24 h incubation; for bactericidal concentration / bacteriostatic concentration: 24 h.
The test system of assay [3] is Streptococcus pyogenes MNWA. In kind it is cell-based.
The test system of assay [4] is S. aureus MN8. In kind it is cell-based, Staphylococcus aureus. The source holds these as a separate data set.
The test system of assay [5] is TSST-1 production by S. aureus CDC587. The class given is cell-based, Staphylococcus aureus.
Assay [6] concerns TSST-1 production by S. aureus MNPE. In kind it is cell-based, Staphylococcus aureus.
In assay [7] the test system is TSST-1 production by S. aureus MN8. In kind it is cell-based, Staphylococcus aureus.
Assay [8] relates to S. aureus MN8. The class given is cell-based, Staphylococcus aureus. The source holds these as a separate data set.
The subject of another assay is S. aureus. In kind it is cell-based, Staphylococcus aureus.
For the next assay, the system named is S. aureus MNPE. In kind it is cell-based, Staphylococcus aureus.
Another assay relates to S. aureus CDC587. The class given is cell-based, Staphylococcus aureus.

Several values for one entry are separate records, joined by “and”; a condition that tells them apart may be missing. Equal entries are not always repeated. Entries after “also recorded” stand apart in the source; their conditions may differ. Where two headings read alike, the source gives them in different places. Where only a bound is given, the exact number is not on record here.

On to `O=C1C=CC(=O)c2ccccc21` [1,4-naphthoquinone], for which the “antimicrobial activity / growth inhibition” value (with S. aureus MN8 [1]; in assay [2]; in the assay on B. anthracis Sterne; in [3]) was “strong antimicrobial activity” throughout. Also, the “fold less active than menadione” value (with S. aureus MN8 [1]; in assay [2]; with B. anthracis Sterne; in assay [3]) was “approximately 2 fold” throughout.

Consider `CCCCCCCCCCCC(=O)OCC(O)CO` (stereo not drawn) [GML, glycerol monolaurate], for which the “growth inhibition of S. aureus MN8” value with S. aureus MN8 [4] is “did not inhibit; also recorded: not inhibitory”.

On to `COC1=C(OC)C(=O)C(C/C=C(\C)CCC=C(C)C)=C(C)C1=O` [coenzyme Q2], for which, in the assay with S. aureus MN8 [1], the “bactericidal concentration (≧3 log drop in CFUs/ml)” value amounted to 50 μg/ml and the “bacteriostatic concentration (<3 log drop in CFUs/ml)” value is 25 μg/ml. In the assay with B. anthracis Sterne, this compound gave a bactericidal concentration of at least 25 µg/mL and a bacteriostatic concentration of 12.5 µg/mL.

With `COC1=C(OC)C(=O)C(C/C=C(\C)CC/C=C(\C)CCC=C(C)C)=C(C)C1=O` [coenzyme Q3], in the assay on S. aureus MN8 [1], the “bactericidal concentration (≧3 log drop in CFUs/ml)” value is listed as 50 μg/ml and the “bacteriostatic concentration (<3 log drop in CFUs/ml)” value is recorded as 25 μg/ml. In the assay on B. anthracis Sterne, this compound had a bactericidal concentration of 50 µg/mL and a bacteriostatic concentration of 25 µg/mL.

With `COC1=C(OC)C(=O)C(C/C=C(\C)CC/C=C(\C)CC/C=C(\C)CC/C=C(\C)CC/C=C(\C)CC/C=C(\C)CC/C=C(\C)CC/C=C(\C)CC/C=C(\C)CCC=C(C)C)=C(C)C1=O` [coenzyme Q10, reference compound], the “antimicrobial activity / growth inhibition” value in the assay with S. aureus MN8 [1] was “no antimicrobial activity”; in assay [2], “lacked antimicrobial activity”; in the assay with B. anthracis Sterne, “no antimicrobial activity”; in assay [3] it was “lacked antimicrobial activity”. The “inhibition of TSST-1 production” value in [5], in assay [6] and in assay [7] was “did not inhibit” throughout.

In the case of `CC1=CC(=O)c2ccccc2C1=O` [menadione], the “antimicrobial activity / growth inhibition” value in the assay with S. aureus MN8 [1] is on record as “inhibits the growth; also recorded: strong antimicrobial activity”. Besides, in the assay with S. aureus MN8 [8], the bactericidal concentration is at least 50 µg/mL; the “concentration of complete killing” value was 200 µg/mL; the “difference in bactericidal concentration, anaerobic versus aerobic” value is listed as 4 fold; the “difference in concentration of complete killing, anaerobic versus aerobic” value was determined as 16 fold. The “growth inhibition when cultured aerobically compared to anaerobically” value with S. aureus MN8 [8] is “more effective”. Also, the “generation of resistant mutants” value in the assay on S. aureus is “failed to generate resistant mutants”. For the same compound, the antimicrobial activity entry with S. aureus MNPE is “comparably bacteriostatic and bactericidal”. Also, in [2], the “antimicrobial activity / growth inhibition” value is recorded as “inhibits the growth; also recorded: strong antimicrobial activity”; the bacteriostatic concentration was 6.25 mg/mL and 12.5 mg/mL. Besides, in the assay on B. anthracis Sterne, the bactericidal concentration is at least 25 µg/mL; the bacteriostatic concentration is 6.25 µg/mL and 12.5 µg/mL; the “antimicrobial activity / growth inhibition” value was “strong antimicrobial activity”. The “antimicrobial activity / growth inhibition” value with B. anthracis Sterne (listed as Menadione) was “inhibits the growth”. Moreover, in assay [7], the “concentration at which TSST-1 production was completely inhibited (no detectable TSST-1)” value was at least 3.1 µg/mL and the “doses that failed to inhibit TSST-1 production” value was below 3.1 µg/mL. Also, in the assay on S. aureus CDC587, the antimicrobial activity entry was “comparably bacteriostatic and bactericidal”. Also, in assay [3], the “antimicrobial activity / growth inhibition” value is on record as “inhibits the growth; also recorded: strong antimicrobial activity”; the bactericidal concentration is 50 µg/mL and 100 µg/mL; the bacteriostatic concentration was determined as 25 µg/mL.

As for `CC1=C(C/C=C(\C)CCC[C@H](C)CCC[C@H](C)CCCC(C)C)C(=O)c2ccccc2C1=O` [phylloquinone, reference compound], the “antimicrobial activity / growth inhibition” value (in the assay on S. aureus MN8 [1]; in [2]; in the assay with B. anthracis Sterne; in [3]) was “no antimicrobial activity” throughout. Besides, the “inhibition of TSST-1 production” value in assay [5], in assay [6] and in assay [7] was “did not inhibit” throughout.
